Laboratory results as given in ChEMBL document CHEMBL1201862, “PubChem BioAssay data set” (2004).
Calls of active or inactive are those of the source. For most assays here, no stated cut-off is given here; in the data, actives have a measured EC50 and inactives only a lower limit.

Assays:
[1] = target: T1, Protein skinhead-1 (Caenorhabditis elegans, UniProt P34707); type: functional
T1 sequence (P34707 whole entry): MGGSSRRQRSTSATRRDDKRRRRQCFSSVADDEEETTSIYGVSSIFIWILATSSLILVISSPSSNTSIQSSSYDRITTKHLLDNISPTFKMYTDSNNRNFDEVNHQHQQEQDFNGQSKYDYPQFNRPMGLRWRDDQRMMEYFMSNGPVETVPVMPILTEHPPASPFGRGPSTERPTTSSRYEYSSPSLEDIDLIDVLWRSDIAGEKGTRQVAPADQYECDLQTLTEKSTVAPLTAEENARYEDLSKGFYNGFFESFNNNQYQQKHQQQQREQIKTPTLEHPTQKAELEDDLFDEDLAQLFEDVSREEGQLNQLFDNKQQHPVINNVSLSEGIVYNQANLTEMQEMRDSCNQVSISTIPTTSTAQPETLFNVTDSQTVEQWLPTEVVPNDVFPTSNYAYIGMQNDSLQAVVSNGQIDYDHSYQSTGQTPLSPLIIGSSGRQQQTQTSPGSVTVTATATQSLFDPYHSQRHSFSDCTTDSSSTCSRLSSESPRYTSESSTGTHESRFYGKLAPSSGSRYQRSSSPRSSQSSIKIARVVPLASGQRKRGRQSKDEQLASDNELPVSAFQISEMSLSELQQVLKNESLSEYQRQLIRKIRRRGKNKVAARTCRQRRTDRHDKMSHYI

[2] = Luminescence Cell-Based Dose Confirmation HTS to Identify Activators of 5'UTR Stem-Loop Driven Alpha-Synuclein mRNA Translation in H4 Neuroglioblastoma Cells. [Related pubchem assays: 1829 (Project Summary), 1814 (Primary HTS)]; type: functional
[3] = tested on: H4; test: Luminescence Cell-Based Dose Response HTS to Identify Activators of 5'UTR Stem-Loop Driven Prion Protein mRNA Translation in H4 Neuroglioblastoma Cells. [Related pubchem assays: 1829 (Project Summary), 1814 (Primary HTS)]; type: functional; settings: Homo sapiens
[4] = Luminescence Cell-Based Dose Response HTS to Identify Activators of Luciferase Translation or Activity in H4 […] Cells. [Related pubchem assays: 1829 (Project Summary), 1814 (Primary HTS)]; type: functional
[5] = target: T2, Rac GTPase-activating protein 1 (Homo sapiens, UniProt Q9H0H5); test: MgcRacGAP GTPase-activating activity inhibitors, confirmation, biochemical, ADP Hunter fluorescence, primary and confirmatory (AID 624330); type: functional
T2 sequence (Q9H0H5 whole entry): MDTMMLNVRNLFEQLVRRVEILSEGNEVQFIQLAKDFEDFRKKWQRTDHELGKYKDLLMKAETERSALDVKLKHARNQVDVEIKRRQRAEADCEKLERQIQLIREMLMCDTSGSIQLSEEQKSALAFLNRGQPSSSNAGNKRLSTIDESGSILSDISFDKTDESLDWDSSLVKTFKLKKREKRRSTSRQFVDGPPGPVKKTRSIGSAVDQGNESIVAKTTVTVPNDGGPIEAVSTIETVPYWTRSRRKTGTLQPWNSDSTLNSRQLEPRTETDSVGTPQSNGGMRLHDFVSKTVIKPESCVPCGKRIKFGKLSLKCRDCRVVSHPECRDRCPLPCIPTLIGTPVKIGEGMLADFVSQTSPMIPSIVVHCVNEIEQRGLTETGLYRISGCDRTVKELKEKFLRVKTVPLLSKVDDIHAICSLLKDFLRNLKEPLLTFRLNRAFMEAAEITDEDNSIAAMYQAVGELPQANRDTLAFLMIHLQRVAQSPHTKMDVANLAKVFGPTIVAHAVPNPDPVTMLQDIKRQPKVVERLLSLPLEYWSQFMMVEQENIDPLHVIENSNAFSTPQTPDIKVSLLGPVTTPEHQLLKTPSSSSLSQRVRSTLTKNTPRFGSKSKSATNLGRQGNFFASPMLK

[6] = target: Nonstructural protein 1 (Influenza A virus, UniProt Q194T2); type: functional, Influenza A virus (A/California/07/2009(H1N1))
[7] = Luminescence Cell-Based Dose Confirmation HTS to Identify Inhibitors of Platelet Dense Granule Release. [Related pubchem assays: 1663 (Primary HTS), 1678 (Summary of Project)]; type: functional
[8] = target: Luciferin 4-monooxygenase (Photinus pyralis, UniProt P08659); test: firefly luciferase enzyme inhibitors, dose response, biochemical, luminescence (AID 1891)
[9] = inhibitors of firefly luciferase expression or activity, dose response, H4 neuroglioma cells, luminescence (AID 1990); type: functional, cell-based
[10] = inhibitors of SNCA 5'UTR-driven reporter translation, confirmation, H4 neuroglioma cells, luminescence (AID 1988); type: functional, cell-based
[11] = Luminescence Cell-Based Dose Response HTS to Identify Inhibitors of 5'UTR Stem-Loop Driven Prion Protein mRNA Translation in H4 Neuroglioblastoma Cells. [Related pubchem assays: 1827 (Project Summary), 1813 (Primary HTS)]; type: functional

For `Fc1ccc(Nc2cccc3nccnc23)cc1`, the IC50 [1] was 34.1 µM (active).

For `COc1ccc(C2CC(c3ccc4ccccc4c3)=NN2C(=O)CN2CCC(C(N)=O)CC2)cc1` (centres undefined), the EC50 [2] was 15.6 µM (active), the EC50 [3] was 16.5 µM (active) and the EC50 [4] was 18.1 µM (active).

In the case of `Nc1ccc(N2CCOCC2)c(Cl)c1`, the IC50 [5] is reported as 38.2 µM (active).

With `COc1ccccc1NC(=O)Nc1nc(CC(=O)Nc2ccc(N(C)C)cc2)cs1` the IC50 [6] was 26.9 µM (active).

With `O=C(Nc1ccccc1Oc1ccccc1)c1cccs1` the IC50 [1] was > 100 µM (inactive).

With `C/C(=C\c1ccco1)CN1CCC(N2CCC(C(=O)N3CCOCC3)CC2)CC1` the EC50 [2] was 11.2 µM (active), the EC50 [3] was > 120 µM (not active) and the EC50 [4] was 15.5 µM (active).

In the case of `C/C=C/c1ccc(OCCCCN2CCN(CC)CC2)c(OC)c1`, the IC50 [5] is reported as 82 µM (active).

With `Cc1cccc(N2CCN(S(=O)(=O)c3ccc4c(c3)C(C)(C)C(=O)N4C)CC2C)c1` (centres undefined) the EC50 [7] was > 112 µM (not active) and the EC50 [8] was > 112 µM (not active).

In the case of `Cc1ccc(C(=O)CC(=O)c2ccccc2)cc1`, the EC50 [2] is reported as 5.35 µM (active), the EC50 [3] is reported as > 120 µM (not active) and the EC50 [4] is reported as 1.75 µM (active).

For `CCCCn1c(N)c(N(CCC(C)C)C(=O)C2CC(=O)N(c3ccc(OC)cc3OC)C2)c(=O)[nH]c1=O` (centres undefined), the EC50 [7] was > 112 µM (not active) and the EC50 [8] was > 112 µM (not active).

For `CC(C)c1nnc(NC(=O)COc2ccccc2[N+](=O)[O-])s1`, the EC50 [2] was 0.112 µM (active), the EC50 [3] was 13.6 µM (active) and the EC50 [4] was 67 µM (active).

In the case of `CSc1nc(N(C)NC(=O)c2ccc(F)cc2)c2ccccc2n1`, the EC50 [9] is reported as 10.6 µM (active), the EC50 [10] is reported as < 0.195 µM (active) and the EC50 [11] is reported as 0.258 µM (active).

With `O=C(CSc1nnc2ccccn12)N1CCc2ccccc2C1` the EC50 [2] was 13.1 µM (active), the EC50 [3] was 78 µM (active) and the EC50 [4] was 38.9 µM (active).

With `CCN(CC(=O)Nc1cc(Cl)ccc1OC)CC(=O)NC1CCS(=O)(=O)C1` (centres undefined) the IC50 [5] was 95.7 µM (active).

With `CCCn1c(N)c(C(c2ccc(OC)cc2)N2CCN(c3ccccc3)CC2)c(=O)[nH]c1=O` (centres undefined) the IC50 [1] was > 100 µM (inactive).

With `CN(C)c1ccc(C=NN2CCCCCC2)cc1` the IC50 [6] was 48.1 µM (active).

In the case of `O=C(Sc1ccc(Cl)cc1)c1ccccn1`, the IC50 [1] is reported as 44.5 µM (active).

In the case of `COc1cc2sc3cc(NCc4ccc(C)o4)ccc3c(=O)c2cc1OC`, the IC50 [1] is reported as > 100 µM (inactive).

For `N#CC1(Nc2ccc(-c3ccc(NC4(C#N)CCCC4)cc3)cc2)CCCC1`, the IC50 [5] was 10.3 µM (active).

In the case of `Cc1nonc1C(=O)N/N=C/c1ccc(O)cc1`, the EC50 [7] is reported as 0.172 µM (active), the EC50 [8] is reported as 0.916 µM (active) and the IC50 [5] is reported as 95.6 µM (active).

In the case of `Cc1cc(S(=O)(=O)N2CCCC2)ccc1OCC(=O)N1CCOCC1`, the EC50 [9] is reported as > 120 µM (not active), the EC50 [10] is reported as > 120 µM (not active) and the EC50 [11] is reported as > 120 µM (not active).

For `Cc1nn(-c2ccccc2)c(O)c1/C=N/N(C)c1ccccc1`, the IC50 [5] was 19.3 µM (active).

For `COc1ccc(/C=N/NC(=O)CN2CCCCCCC2)c(C)c1C`, the IC50 [5] was 139 µM (active).

For `N#Cc1c(O)nsc1Nc1ccc(Cl)cc1`, the IC50 [5] was 79.9 µM (active).

In the case of `Nc1ccc2c(c1)[nH]c(=O)c1cc(N)ccc12`, the IC50 [5] is reported as 10.9 µM (active).

For `NS(=O)(=O)c1ccc(Nc2nc(-c3ccc(O)cc3)cs2)cc1`, the IC50 [5] was 19.9 µM (active).
